Measurements from ChEMBL document CHEMBL3091428, “Synthesis and initial biological evaluation of substituted 1-phenylamino-2-thio-4,5-dimethyl-1H-imidazole derivatives” (Bioorg Med Chem Lett, 2013).
In brackets after ≈: the same amount, converted by molar mass.

Assays:
[1] = Cytotoxicity against human OVCAR5 cells assessed as cell growth after 48 hrs by SRB assay relative to control; type: functional, OVCAR-5
[2] = system: ACHN; experiment: Cytotoxicity against human ACHN cells assessed as cell growth after 48 hrs by SRB assay relative to control; type: functional
[3] = system: NCI-H23; experiment: Cytotoxicity against human NCI-H23 cells assessed as cell growth after 48 hrs by SRB assay relative to control; type: functional
[4] = system: SK-MEL-5; experiment: Cytotoxicity against human SK-MEL-5 cells assessed as cell growth after 48 hrs by SRB assay relative to control; type: functional
[5] = system: SK-MEL-2; experiment: Cytotoxicity against human SK-MEL-2 cells assessed as cell growth after 48 hrs by SRB assay relative to control; type: functional
[6] = system: A498; experiment: Cytotoxicity against human A498 cells assessed as cell growth after 48 hrs by SRB assay relative to control; type: functional
[7] = system: A549; experiment: Cytotoxicity against human A549 cells assessed as cell growth after 48 hrs by SRB assay relative to control; type: functional
[8] = Cytotoxicity against human OVCAR4 cells assessed as cell growth after 48 hrs by SRB assay relative to control; type: functional, OVCAR-4
[9] = system: Malme-3M; experiment: Cytotoxicity against human MALME-3M cells assessed as cell growth after 48 hrs by SRB assay relative to control; type: functional
[10] = system: SK-MEL-28; experiment: Cytotoxicity against human SK-MEL-28 cells assessed as cell growth after 48 hrs by SRB assay relative to control; type: functional
[11] = system: MDA-MB-435; experiment: Cytotoxicity against human MDA-MB-435 cells assessed as cell growth after 48 hrs by SRB assay relative to control; type: functional
[12] = system: BT-549; experiment: Cytotoxicity against human BT549 cells assessed as cell growth after 48 hrs by SRB assay relative to control; type: functional
[13] = system: SF-295; experiment: Cytotoxicity against human SF295 cells assessed as cell growth after 48 hrs by SRB assay relative to control; type: functional
[14] = system: MDA-MB-231; experiment: Cytotoxicity against human MDA-MB-231 cells assessed as cell growth after 48 hrs by SRB assay relative to control; type: functional
[15] = system: Enterococcus faecalis; experiment: Antimicrobial activity against Enterococcus faecalis ATCC 51299 after 24 hrs by broth microdilution method; type: functional; details: ATCC 51299, 24 h
[16] = system: MCF7; experiment: Cytotoxicity against human MCF7 cells assessed as cell growth after 48 hrs by SRB assay relative to control; type: functional
[17] = system: HOP-92; experiment: Cytotoxicity against human HOP92 cells assessed as cell growth after 48 hrs by SRB assay relative to control; type: functional
[18] = system: TK-10; experiment: Cytotoxicity against human TK10 cells assessed as cell growth after 48 hrs by SRB assay relative to control; type: functional
[19] = Cytotoxicity against human Hs578T cells assessed as cell growth after 48 hrs by SRB assay relative to control; type: functional, Hs-578T
[20] = system: LOX IMVI; experiment: Cytotoxicity against human LOXIMVI cells assessed as cell growth after 48 hrs by SRB assay relative to control; type: functional
[21] = system: PC-3; experiment: Cytotoxicity against human PC3 cells assessed as cell growth after 48 hrs by SRB assay relative to control; type: functional
[22] = system: HCT-116; experiment: Cytotoxicity against human HCT116 cells assessed as cell growth after 48 hrs by SRB assay relative to control; type: functional
[23] = system: Pichia kudriavzevii; experiment: Antimicrobial activity against Candida krusei ATCC 6258 after 24 hrs by broth microdilution method; type: functional; details: ATCC 6258, 24 h
[24] = system: HOP-62; experiment: Cytotoxicity against human HOP62 cells assessed as cell growth after 48 hrs by SRB assay relative to control; type: functional
[25] = system: OVCAR-8; experiment: Cytotoxicity against human OVCAR8 cells assessed as cell growth after 48 hrs by SRB assay relative to control; type: functional
[26] = system: UACC-62; experiment: Cytotoxicity against human UACC62 cells assessed as cell growth after 48 hrs by SRB assay relative to control; type: functional
[27] = system: T47D; experiment: Cytotoxicity against human T47D cells assessed as cell growth after 48 hrs by SRB assay relative to control; type: functional
[28] = system: CCRF-CEM; experiment: Cytotoxicity against human CCRF-CEM cells assessed as cell growth after 48 hrs by SRB assay relative to control; type: functional
[29] = system: IGROV-1; experiment: Cytotoxicity against human IGROV1 cells assessed as cell growth after 48 hrs by SRB assay relative to control; type: functional
[30] = system: HT-29; experiment: Cytotoxicity against human HT-29 cells assessed as cell growth after 48 hrs by SRB assay relative to control; type: functional
[31] = system: SNB-75; experiment: Cytotoxicity against human SNB75 cells assessed as cell growth after 48 hrs by SRB assay relative to control; type: functional
[32] = system: COLO 205; experiment: Cytotoxicity against human COLO205 cells assessed as cell growth after 48 hrs by SRB assay relative to control; type: functional
[33] = Cytotoxicity against human UACC257 cells assessed as cell growth after 48 hrs by SRB assay relative to control; type: functional, UACC-257
[34] = system: NCI-H460; experiment: Cytotoxicity against human NCI-H460 cells assessed as cell growth after 48 hrs by SRB assay relative to control; type: functional
[35] = system: SNB-19; experiment: Cytotoxicity against human SNB19 cells assessed as cell growth after 48 hrs by SRB assay relative to control; type: functional
[36] = Cytotoxicity against human UO31 cells assessed as cell growth after 48 hrs by SRB assay relative to control; type: functional, UO-31
[37] = system: Candida albicans; experiment: Antimicrobial activity against Candida albicans ATCC 90028 after 24 hrs by broth microdilution method; type: functional; details: ATCC 90028, 24 h
[38] = system: SR; experiment: Cytotoxicity against human SR cells assessed as cell growth after 48 hrs by SRB assay relative to control; type: functional
[39] = system: HCC 2998; experiment: Cytotoxicity against human HCC2998 cells assessed as cell growth after 48 hrs by SRB assay relative to control; type: functional
[40] = system: 786-0; experiment: Cytotoxicity against human 786-0 cells assessed as cell growth after 48 hrs by SRB assay relative to control; type: functional
[41] = system: Enterococcus faecalis; experiment: Antimicrobial activity against Enterococcus faecalis ATCC 29212 after 24 hrs by broth microdilution method; type: functional; details: ATCC 29212, 24 h
[42] = system: DU-145; experiment: Cytotoxicity against human DU145 cells assessed as cell growth after 48 hrs by SRB assay relative to control; type: functional
[43] = system: HL-60(TB); experiment: Cytotoxicity against human HL-60(TB) cells assessed as cell growth after 48 hrs by SRB assay relative to control; type: functional
[44] = system: SW-620; experiment: Cytotoxicity against human SW620 cells assessed as cell growth after 48 hrs by SRB assay relative to control; type: functional
[45] = system: RXF 393; experiment: Cytotoxicity against human RXF393 cells assessed as cell growth after 48 hrs by SRB assay relative to control; type: functional
[46] = system: OVCAR-3; experiment: Cytotoxicity against human OVCAR3 cells assessed as cell growth after 48 hrs by SRB assay relative to control; type: functional
[47] = system: M14; experiment: Cytotoxicity against human M14 cells assessed as cell growth after 48 hrs by SRB assay relative to control; type: functional
[48] = system: SK-OV-3; experiment: Cytotoxicity against human SKOV3 cells assessed as cell growth after 48 hrs by SRB assay relative to control; type: functional
[49] = system: SF-539; experiment: Cytotoxicity against human SF539 cells assessed as cell growth after 48 hrs by SRB assay relative to control; type: functional

Structure (SMILES): Cc1nc(SCC(=O)c2ccccc2)n(Nc2ccccc2)c1C
- Activity [1]: 109.7%
- Activity [2]: 106.6%
- Activity [3]: 93.43%
- Activity [4]: 99.8%
- Activity [5]: 97.16%
- Activity [6]: 91.12%
- Activity [7]: 99.16%
- Activity [8]: 105.2%
- Activity [9]: 103.5%
- Activity [10]: 110.7%
- Activity [11]: 97.36%
- Activity [12]: 88.93%
- Activity [13]: 86.98%
- Activity [14]: 98.84%
- MIC [15]: 800 µg/mL (≈ 2370 µM)
- Activity [16]: 96.9%
- Activity [17]: 91.79%
- Activity [18]: 127.6%
- Activity [19]: 108%
- Activity [20]: 102.1%
- Activity [21]: 102%
- Activity [22]: 86.93%
- MIC [23]: 400 µg/mL (≈ 1190 µM)
- Activity [24]: 97.72%
- Activity [25]: 99.29%
- Activity [26]: 102.6%
- Activity [27]: 85.54%
- Activity [28]: 90.27%
- Activity [29]: 98.59%
- Activity [30]: 97.65%
- Activity [31]: 108.2%
- Activity [32]: 110.9%
- Activity [33]: 97.59%
- Activity [34]: 104.4%
- Activity [35]: 98.31%
- Activity [36]: 68.6%
- MIC [37]: 400 µg/mL (≈ 1190 µM)
- Activity [38]: 82.35%
- Activity [39]: 110.5%
- Activity [40]: 106.4%
- MIC [41]: 800 µg/mL (≈ 2370 µM)
- Activity [42]: 109.3%
- Activity [43]: 91%
- Activity [44]: 109.1%
- Activity [45]: 103.1%
- Activity [46]: 109.4%
- Activity [47]: 101.1%
- Activity [48]: 97.79%
- Activity [49]: 104.4%

Structure (SMILES): COc1ccc(C(=O)CSc2nc(C)c(C)n2Nc2ccccc2)cc1
- Activity [1]: 99.29%
- Activity [2]: 99.05%
- Activity [3]: 88.38%
- Activity [4]: 100.7%
- Activity [5]: 94.21%
- Activity [6]: 90.87%
- Activity [7]: 97.35%
- Activity [8]: 92.83%
- Activity [9]: 101.4%
- Activity [10]: 113.1%
- Activity [11]: 95.25%
- Activity [12]: 84.66%
- Activity [13]: 90.39%
- Activity [14]: 89.05%
- MIC [15]: 800 µg/mL (≈ 2180 µM)
- Activity [16]: 105.7%
- Activity [17]: 82.74%
- Activity [18]: 109.3%
- Activity [19]: 107.2%
- Activity [20]: 104.8%
- Activity [21]: 89.35%
- Activity [22]: 96.71%
- MIC [23]: 800 µg/mL (≈ 2180 µM)
- Activity [24]: 100.7%
- Activity [25]: 100.7%
- Activity [26]: 90.38%
- Activity [27]: 71.62%
- Activity [28]: 89.68%
- Activity [29]: 103.3%
- Activity [30]: 94.25%
- Activity [31]: 93.05%
- Activity [32]: 100.5%
- Activity [33]: 99.75%
- Activity [34]: 96.54%
- Activity [35]: 96.63%
- Activity [36]: 69.91%
- MIC [37]: 400 µg/mL (≈ 1090 µM)
- Activity [38]: 83.4%
- Activity [39]: 93.49%
- Activity [40]: 90.03%
- MIC [41]: 400 µg/mL (≈ 1090 µM)
- Activity [42]: 111.6%
- Activity [43]: 87.13%
- Activity [44]: 105.7%
- Activity [45]: 85.48%
- Activity [46]: 101.3%
- Activity [47]: 91.19%
- Activity [48]: 93.26%
- Activity [49]: 100.8%

Structure (SMILES): Cc1nc(SCC(=O)c2ccc(Cl)cc2)n(Nc2ccccc2)c1C
- Activity [1]: 103.9%
- Activity [2]: 102.7%
- Activity [3]: 89.25%
- Activity [4]: 96.98%
- Activity [5]: 91.02%
- Activity [6]: 82.14%
- Activity [7]: 86.67%
- Activity [8]: 93.89%
- Activity [9]: 97.11%
- Activity [10]: 108.7%
- Activity [11]: 99.36%
- Activity [12]: 104.7%
- Activity [13]: 89.88%
- Activity [14]: 95.48%
- MIC [15]: 400 µg/mL (≈ 1080 µM)
- Activity [16]: 88.08%
- Activity [17]: 76.51%
- Activity [18]: 117.2%
- Activity [19]: 96.61%
- Activity [20]: 101.4%
- Activity [21]: 91.86%
- Activity [22]: 90.7%
- MIC [23]: 200 µg/mL (≈ 538 µM)
- Activity [24]: 101.2%
- Activity [25]: 96.67%
- Activity [26]: 90.32%
- Activity [27]: 79.51%
- Activity [28]: 81.64%
- Activity [29]: 102.1%
- Activity [30]: 99.26%
- Activity [31]: 94.11%
- Activity [32]: 96.15%
- Activity [33]: 97.88%
- Activity [34]: 98.85%
- Activity [35]: 89%
- Activity [36]: 66.15%
- MIC [37]: 200 µg/mL (≈ 538 µM)
- Activity [38]: 86.04%
- Activity [39]: 106.9%
- Activity [40]: 97.67%
- MIC [41]: 200 µg/mL (≈ 538 µM)
- Activity [42]: 115.8%
- Activity [43]: 92.02%
- Activity [44]: 108.9%
- Activity [45]: 96.88%
- Activity [46]: 108.6%
- Activity [47]: 107.4%
- Activity [48]: 102.4%
- Activity [49]: 103.9%
